In ChEMBL document CHEMBL1201862, “PubChem BioAssay data set” (2004):
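96-well plates; 48 h exposure; 5 concentrations. Endpoints by linear interpolation between flanking doses. Not reached: highest tested concentration assigned. The concentration for 50% growth inhibition is given as GI50.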 Activity calls are given as the source filed them. No stated cut-off is given here; in the data, active = GI50 up to about 1.1 µM and inactive = higher.

What was measured:
Experiment in all cases: inhibition of tumour cell growth, NCI panel, 48 h
HOP-92 = tested on: HOP-92
HT-29 = tested on: HT-29
LOX IMVI = tested on: LOX IMVI
SF-268 = tested on: SF-268
OVCAR-5 = tested on: OVCAR-5
CAKI-1 = tested on: CAKI-1
UO-31 = tested on: UO-31
A498 = tested on: A498
MDA-MB-435 = tested on: MDA-MB-435
SK-MEL-5 = tested on: SK-MEL-5
SNB-75 = tested on: SNB-75
OVCAR-4 = tested on: OVCAR-4
MCF7 = tested on: MCF7
BT-549 = tested on: BT-549
NCI-H226 = tested on: NCI-H226
T47D = tested on: T47D
DU-145 = tested on: DU-145
MDA-MB-231 = tested on: MDA-MB-231
Hs-578T = tested on: Hs-578T

Measured: GI50

Cc1ccc(NC(=O)c2cc(S(=O)(=O)Nc3n[nH]c(=O)n3-c3ccccc3)c(S)cc2Cl)cc1
inactive: HOP-92 > 100 µM | HT-29 > 100 µM | LOX IMVI > 100 µM | SF-268 > 100 µM | OVCAR-5 > 100 µM | CAKI-1 > 100 µM | UO-31 > 100 µM | A498 > 100 µM | MDA-MB-435 > 100 µM | SK-MEL-5 > 100 µM | SNB-75 > 100 µM | OVCAR-4 > 100 µM | MCF7 > 100 µM | BT-549 > 100 µM | NCI-H226 > 100 µM | T47D > 100 µM | DU-145 > 100 µM | MDA-MB-231 > 100 µM | Hs-578T > 100 µM

COc1cccc2c(=O)oc(-c3ccc(C(C)(C)C)cc3)nc12
inactive: HOP-92 41.6 µM | HT-29 41.7 µM | LOX IMVI 22.5 µM | SF-268 84.9 µM | OVCAR-5 > 100 µM | CAKI-1 35.8 µM | UO-31 > 100 µM | A498 > 100 µM | MDA-MB-435 59.7 µM | SK-MEL-5 28.8 µM | SNB-75 23.9 µM | OVCAR-4 53.6 µM | MCF7 57 µM | BT-549 44 µM | T47D 80.4 µM | DU-145 > 100 µM | MDA-MB-231 58.1 µM | Hs-578T 79.3 µM

CCN1CN(c2ccccc2)C2(CCN(CC3COc4ccccc4O3)CC2)C1=O (stereo not given)
inactive: HT-29 20.1 µM | LOX IMVI 17.9 µM | SF-268 42.5 µM | OVCAR-5 24.3 µM | CAKI-1 43 µM | UO-31 29 µM | A498 22.6 µM | MDA-MB-435 23.3 µM | SK-MEL-5 18.2 µM | SNB-75 30.2 µM | MCF7 26.1 µM | BT-549 16 µM | NCI-H226 24 µM | T47D 24.3 µM | DU-145 36.6 µM | MDA-MB-231 2.57 µM | Hs-578T 20.7 µM

c1ccc2c(c1)Sc1nccc3ccnc-2c13
inactive: HOP-92 43.6 µM | HT-29 11.9 µM | LOX IMVI 28.9 µM | SF-268 18.7 µM | OVCAR-5 > 100 µM | CAKI-1 7.13 µM | UO-31 7.5 µM | A498 16.6 µM | MDA-MB-435 39.5 µM | SK-MEL-5 19.1 µM | SNB-75 15.2 µM | OVCAR-4 59.2 µM | MCF7 12.6 µM | BT-549 77.1 µM | NCI-H226 27.9 µM | T47D 27.7 µM | DU-145 > 100 µM | MDA-MB-231 > 100 µM | Hs-578T 14 µM

CC(=O)N1C(Nc2nccs2)CCN1c1ccccc1 (stereo not given)
inactive: HOP-92 > 10 µM | HT-29 > 10 µM | LOX IMVI > 10 µM | SF-268 > 10 µM | OVCAR-5 > 10 µM | CAKI-1 > 10 µM | MDA-MB-435 > 10 µM | SK-MEL-5 > 10 µM | SNB-75 > 10 µM | OVCAR-4 > 10 µM | MCF7 > 10 µM | BT-549 > 10 µM | NCI-H226 > 10 µM | T47D > 10 µM | DU-145 > 10 µM | MDA-MB-231 > 10 µM | Hs-578T > 10 µM

CC(C)/C(Cl)=N/OC(=O)Nc1cccc(C(F)(F)F)c1
inactive: HOP-92 1.75 µM | HT-29 4.98 µM | LOX IMVI 2.51 µM | SF-268 23.1 µM | OVCAR-5 18.9 µM | CAKI-1 1.75 µM | UO-31 7.96 µM | A498 18.7 µM | MDA-MB-435 11.8 µM | SK-MEL-5 8.05 µM | SNB-75 5.04 µM | OVCAR-4 7.05 µM | MCF7 5.35 µM | BT-549 3.64 µM | NCI-H226 12.5 µM | T47D 4.1 µM | DU-145 17.3 µM | MDA-MB-231 6.68 µM | Hs-578T 9.55 µM

COC(=O)/C(C#N)=C(/NCCN)Nc1ccccc1
inactive: HOP-92 > 100 µM | HT-29 > 100 µM | LOX IMVI > 100 µM | SF-268 > 100 µM | OVCAR-5 > 100 µM | CAKI-1 > 100 µM | UO-31 > 100 µM | A498 > 100 µM | MDA-MB-435 > 100 µM | SK-MEL-5 > 100 µM | SNB-75 57.3 µM | OVCAR-4 > 100 µM | MCF7 > 100 µM | BT-549 > 100 µM | NCI-H226 > 100 µM | T47D > 100 µM | DU-145 > 100 µM | MDA-MB-231 > 100 µM | Hs-578T > 100 µM

CC(=O)Oc1ccc2oc(=O)cc(C)c2c1
inactive: HOP-92 > 100 µM | HT-29 > 100 µM | LOX IMVI > 100 µM | SF-268 > 100 µM | CAKI-1 > 100 µM | UO-31 > 100 µM | A498 > 100 µM | MDA-MB-435 > 100 µM | SK-MEL-5 > 100 µM | SNB-75 > 100 µM | OVCAR-4 > 100 µM | MCF7 > 100 µM | BT-549 > 100 µM | NCI-H226 > 100 µM | T47D > 100 µM | DU-145 > 100 µM | MDA-MB-231 > 100 µM | Hs-578T > 100 µM

CC(C)(C)OC(=O)NCCCCC(N)C(N)=O (stereo not given)
inactive: HOP-92 > 100 µM | HT-29 > 100 µM | LOX IMVI > 100 µM | SF-268 > 100 µM | OVCAR-5 > 100 µM | CAKI-1 > 100 µM | UO-31 > 100 µM | A498 > 100 µM | MDA-MB-435 > 100 µM | SK-MEL-5 78.7 µM | SNB-75 > 100 µM | OVCAR-4 > 100 µM | MCF7 > 100 µM | BT-549 > 100 µM | NCI-H226 > 100 µM | T47D > 100 µM | DU-145 > 100 µM | MDA-MB-231 > 100 µM | Hs-578T 45.7 µM

CC(=O)Oc1ccc(/C=C/C(=O)O[C@@H](C(=O)O)[C@@H](OC(=O)/C=C/c2ccc(OC(C)=O)c(OC(C)=O)c2)C(=O)O)cc1OC(C)=O
inactive: HOP-92 > 100 µM | LOX IMVI > 100 µM | SF-268 > 100 µM | OVCAR-5 > 100 µM | CAKI-1 > 100 µM | UO-31 > 100 µM | A498 > 100 µM | MDA-MB-435 > 100 µM | SK-MEL-5 > 100 µM | SNB-75 82.8 µM | OVCAR-4 > 100 µM | MCF7 > 100 µM | BT-549 > 100 µM | T47D > 100 µM | DU-145 > 100 µM | MDA-MB-231 > 100 µM | Hs-578T > 100 µM

C=CCN(c1cc(OC)c(NC(C)=O)cc1[N+](=O)[O-])S(C)(=O)=O
inactive: LOX IMVI > 100 µM | SF-268 > 100 µM | OVCAR-5 > 100 µM | CAKI-1 > 100 µM | UO-31 > 100 µM | A498 > 100 µM | MDA-MB-435 > 100 µM | SK-MEL-5 > 100 µM | SNB-75 > 100 µM | OVCAR-4 > 100 µM | MCF7 > 100 µM | BT-549 > 100 µM | NCI-H226 > 100 µM | T47D > 100 µM | DU-145 > 100 µM | MDA-MB-231 > 100 µM | Hs-578T > 100 µM

Clc1ccc(CCN2CCN(CCCc3ccccc3)CC2)cc1Cl
inactive: HOP-92 11.3 µM | HT-29 13.2 µM | LOX IMVI 17.2 µM | SF-268 20.4 µM | OVCAR-5 16.2 µM | CAKI-1 17.1 µM | UO-31 12.2 µM | A498 15.8 µM | MDA-MB-435 17.3 µM | SK-MEL-5 15.8 µM | OVCAR-4 16.3 µM | MCF7 17.5 µM | BT-549 15.8 µM | NCI-H226 20.1 µM | T47D 17.2 µM | DU-145 16.4 µM | MDA-MB-231 16.8 µM | Hs-578T 23.5 µM

CCOC(=O)C(C)c1nc2cc3cccnc3c(Cl)c2[nH]c1=O (stereo not given)
inactive: HOP-92 > 100 µM | HT-29 > 100 µM | LOX IMVI > 100 µM | SF-268 86.1 µM | CAKI-1 > 100 µM | UO-31 > 100 µM | A498 > 100 µM | MDA-MB-435 > 100 µM | SK-MEL-5 > 100 µM | SNB-75 > 100 µM | OVCAR-4 > 100 µM | MCF7 > 100 µM | BT-549 > 100 µM | NCI-H226 > 100 µM | T47D 23.4 µM | DU-145 20 µM | MDA-MB-231 82 µM | Hs-578T 54.1 µM

CN(C)c1ncc(-c2c[nH]c3ccccc23)nc1-c1c[nH]c2ccccc12
inactive: HOP-92 3.2 µM | HT-29 2.19 µM | LOX IMVI 2.51 µM | SF-268 10.6 µM | OVCAR-5 4.68 µM | CAKI-1 3.47 µM | UO-31 3.73 µM | A498 2.14 µM | MDA-MB-435 3.31 µM | SK-MEL-5 3.72 µM | SNB-75 1.15 µM | OVCAR-4 5.32 µM | MCF7 2.3 µM | BT-549 13.8 µM | T47D 3.23 µM | DU-145 7.28 µM | MDA-MB-231 2.07 µM | Hs-578T 2.78 µM

C/C=C\C(CC(=O)NCCc1c[nH]c2ccccc12)CC(=O)OC (stereo not given)
inactive: HOP-92 > 100 µM | HT-29 > 100 µM | SF-268 > 100 µM | OVCAR-5 > 100 µM | CAKI-1 > 100 µM | UO-31 > 100 µM | A498 > 100 µM | MDA-MB-435 > 100 µM | SK-MEL-5 > 100 µM | SNB-75 > 100 µM | OVCAR-4 > 100 µM | MCF7 > 100 µM | BT-549 > 100 µM | T47D > 100 µM | DU-145 > 100 µM | MDA-MB-231 > 100 µM | Hs-578T > 100 µM
